# Measurements reported in patent US20260364168A1, “USE OF PROTEIN KINASE C (PKC) ACTIVATING COMPOUNDS AS AN ADJUVANT” (priority 2022, published 2026).
# Where two headings read alike, the source gives them in different places.
# Tested on: human PBMC cells
# Test: cytokine/chemokine gene expression (TaqMan) in human PBMC
# Conditions: Homo sapiens, PBMC, 4 h
# Description: Materials and methods: 100 million frozen human PBMC cells were purchased from Allcells (100 million/vial). The cells were thawed and recovered for one day before 1.5-1.8 million cells in 900 μl RPMI1640 with 10% heat-inactivated FBS were seeded in each well of 24-well plates. Various compounds in DMSO stock (500×) were diluted 50-fold with the same media to make 10× compound stock for most compounds. 1 μL of 5 mg/mL PMA was diluted to 99 μL of the media to make 50 μg/mL PMA. For PMA with ionomycin treatment condition, 1.5 μL of 50 μg/mL PMA and 3 μL of 500 μg/mL ionomycin were added to 145.5 μL of the media to make 10× compound stock. Sources of the compounds are as follows: PMA from Abcam (Abcam #ab120297); Ionomycin from Sigma (Sigma #I0634); Resiquimod from Sellect Chem. (Selleckchem #S8133); and LPS from Sigma (Sigma #L6143).
# Each treatment condition was performed in duplicates. After treatment, mRNA was extracted from cells and samples from duplicates were combined for TaqMan gene expression assays (ThermoFisher) in triplicates. Expression of 19 genes (IL-1β, IL-2, IL-4, IL-6, IL-8, IL-10, IL-13, IL-18, IL-12p70/IL-12A, IL-12p40/IL-12B, IFN-α, IFN-γ, GM-CSF/CSF2, CCL2/MCP-1, MIP1a/CCL3, TNF-α, MX1, OAS1, ISG15) along with two housekeeping gene controls, 18S and GAPDH, was determined. Target gene expression in each sample was determined by relative quantification (RQ) using the comparative Ct (ΔΔCT) method. This method measures the Ct difference (ΔCT) between target gene and the housekeeping genes (18S & GAPDH), then compares the ΔCT values of treated samples to DMSO-treated control samples. The mean ΔCT value of the DMSO-treated control from two independent DMSO-treated control samples was used. The relative expression level of target gene was calculated by using the equation:
# relative expression=2^−ΔΔCT
smiles,measurement,setting,value
CC1=C[C@H]2[C@@]3(O)[C@H](C)C[C@]4(OC(=O)[C@@H](N)[C@]56C[C@H]7C[C@H](C[C@H](C7)C5)C6)[C@H]([C@@H]3C=C(CO)C[C@]2(O)C1=O)C4(C)C,fold induction at 0.01 µM,"read-out: CCL2 gene relative expression, 0.01 μM, 4 h, vs DMSO",5.58
same,fold induction at 0.03 µM,"read-out: CCL2 gene relative expression, 0.03 μM, 4 h, vs DMSO",3.59
same,fold induction at 0.1 µM,"read-out: CCL2 gene relative expression, 0.10 μM, 4 h, vs DMSO",0.38
same,fold induction at 0.01 µM,"read-out: GM-CSF gene relative expression, 0.01 μM, 4 h, vs DMSO",1.59
same,fold induction at 0.03 µM,"read-out: GM-CSF gene relative expression, 0.03 μM, 4 h, vs DMSO",8.38
same,fold induction at 0.1 µM,"read-out: GM-CSF gene relative expression, 0.10 μM, 4 h, vs DMSO",16.1
same,fold induction at 0.01 µM,"read-out: IFN-α gene relative expression, 0.01 μM, 4 h, vs DMSO",0.78
same,fold induction at 0.03 µM,"read-out: IFN-α gene relative expression, 0.03 μM, 4 h, vs DMSO",0.46
same,fold induction at 0.1 µM,"read-out: IFN-α gene relative expression, 0.10 μM, 4 h, vs DMSO",0.31
same,fold induction at 0.01 µM,"read-out: IFNγ gene relative expression, 0.01 μM, 4 h, vs DMSO",1.69
same,fold induction at 0.03 µM,"read-out: IFNγ gene relative expression, 0.03 μM, 4 h, vs DMSO",3.82
same,fold induction at 0.1 µM,"read-out: IFNγ gene relative expression, 0.10 μM, 4 h, vs DMSO",18.1
same,fold induction at 0.01 µM,"read-out: IL-1β gene relative expression, 0.01 μM, 4 h, vs DMSO",0.59
same,fold induction at 0.03 µM,"read-out: IL-1β gene relative expression, 0.03 μM, 4 h, vs DMSO",2.26
same,fold induction at 0.1 µM,"read-out: IL-1β gene relative expression, 0.10 μM, 4 h, vs DMSO",3
same,fold induction at 0.01 µM,"read-out: IL-2 gene relative expression, 0.01 μM, 4 h, vs DMSO",3.06
same,fold induction at 0.03 µM,"read-out: IL-2 gene relative expression, 0.03 μM, 4 h, vs DMSO",7.78
same,fold induction at 0.1 µM,"read-out: IL-2 gene relative expression, 0.10 μM, 4 h, vs DMSO",3.29
same,fold induction at 0.01 µM,"read-out: IL-4 gene relative expression, 0.01 μM, 4 h, vs DMSO",0.84
same,fold induction at 0.03 µM,"read-out: IL-4 gene relative expression, 0.03 μM, 4 h, vs DMSO",2.54
same,fold induction at 0.1 µM,"read-out: IL-4 gene relative expression, 0.10 μM, 4 h, vs DMSO",2.77
same,fold induction at 0.01 µM,"read-out: IL-6 gene relative expression, 0.01 μM, 4 h, vs DMSO",1.17
same,fold induction at 0.03 µM,"read-out: IL-6 gene relative expression, 0.03 μM, 4 h, vs DMSO",0.86
same,fold induction at 0.1 µM,"read-out: IL-6 gene relative expression, 0.10 μM, 4 h, vs DMSO",6.72
same,fold induction at 0.01 µM,"read-out: IL-8 gene relative expression, 0.01 μM, 4 h, vs DMSO",0.71
same,fold induction at 0.03 µM,"read-out: IL-8 gene relative expression, 0.03 μM, 4 h, vs DMSO",0.54
same,fold induction at 0.1 µM,"read-out: IL-8 gene relative expression, 0.10 μM, 4 h, vs DMSO",0.6
same,fold induction at 0.01 µM,"read-out: IL-10 gene relative expression, 0.01 μM, 4 h, vs DMSO",1.12
same,fold induction at 0.03 µM,"read-out: IL-10 gene relative expression, 0.03 μM, 4 h, vs DMSO",0.41
same,fold induction at 0.1 µM,"read-out: IL-10 gene relative expression, 0.10 μM, 4 h, vs DMSO",0.09
same,fold induction at 0.01 µM,"read-out: IL-12p40 gene relative expression, 0.01 μM, 4 h, vs DMSO",0.89
same,fold induction at 0.03 µM,"read-out: IL-12p40 gene relative expression, 0.03 μM, 4 h, vs DMSO",0.32
same,fold induction at 0.1 µM,"read-out: IL-12p40 gene relative expression, 0.10 μM, 4 h, vs DMSO",0.22
same,fold induction at 0.01 µM,"read-out: IL-12p70 gene relative expression, 0.01 μM, 4 h, vs DMSO",1.03
same,fold induction at 0.03 µM,"read-out: IL-12p70 gene relative expression, 0.03 μM, 4 h, vs DMSO",0.87
same,fold induction at 0.1 µM,"read-out: IL-12p70 gene relative expression, 0.10 μM, 4 h, vs DMSO",0.76
same,fold induction at 0.01 µM,"read-out: IL-13 gene relative expression, 0.01 μM, 4 h, vs DMSO",3.1
same,fold induction at 0.03 µM,"read-out: IL-13 gene relative expression, 0.03 μM, 4 h, vs DMSO",52.6
same,fold induction at 0.1 µM,"read-out: IL-13 gene relative expression, 0.10 μM, 4 h, vs DMSO",101
same,fold induction at 0.01 µM,"read-out: IL-18 gene relative expression, 0.01 μM, 4 h, vs DMSO",0.26
same,fold induction at 0.03 µM,"read-out: IL-18 gene relative expression, 0.03 μM, 4 h, vs DMSO",0.06
same,fold induction at 0.1 µM,"read-out: IL-18 gene relative expression, 0.10 μM, 4 h, vs DMSO",0.06
same,fold induction at 0.01 µM,"read-out: ISG15 gene relative expression, 0.01 μM, 4 h, vs DMSO",1.01
same,fold induction at 0.03 µM,"read-out: ISG15 gene relative expression, 0.03 μM, 4 h, vs DMSO",1.33
same,fold induction at 0.1 µM,"read-out: ISG15 gene relative expression, 0.10 μM, 4 h, vs DMSO",1.54
same,fold induction at 0.01 µM,"read-out: MIP1a (CCL3) gene relative expression, 0.01 μM, 4 h, vs DMSO",1.65
same,fold induction at 0.03 µM,"read-out: MIP1a (CCL3) gene relative expression, 0.03 μM, 4 h, vs DMSO",2.82
same,fold induction at 0.1 µM,"read-out: MIP1a (CCL3) gene relative expression, 0.10 μM, 4 h, vs DMSO",5.73
same,fold induction at 0.01 µM,"read-out: MX1 gene relative expression, 0.01 μM, 4 h, vs DMSO",0.84
same,fold induction at 0.03 µM,"read-out: MX1 gene relative expression, 0.03 μM, 4 h, vs DMSO",1.01
same,fold induction at 0.1 µM,"read-out: MX1 gene relative expression, 0.10 μM, 4 h, vs DMSO",0.99
same,fold induction at 0.01 µM,"read-out: OAS1 gene relative expression, 0.01 μM, 4 h, vs DMSO",0.74
same,fold induction at 0.03 µM,"read-out: OAS1 gene relative expression, 0.03 μM, 4 h, vs DMSO",0.78
same,fold induction at 0.1 µM,"read-out: OAS1 gene relative expression, 0.10 μM, 4 h, vs DMSO",0.69
same,fold induction at 0.01 µM,"read-out: TNF-α gene relative expression, 0.01 μM, 4 h, vs DMSO",2.39
same,fold induction at 0.03 µM,"read-out: TNF-α gene relative expression, 0.03 μM, 4 h, vs DMSO",4.48
same,fold induction at 0.1 µM,"read-out: TNF-α gene relative expression, 0.10 μM, 4 h, vs DMSO",6.25
